Laboratory results as given in the NIST ThermoML archive (doi:10.1016/j.tca.2006.07.010).
± gives the expanded uncertainty stated by the source.

Key:
[1] = molar heat capacity at constant pressure; settings: 298 K; 101.33 kPa; Crystal; Small sample (50 mg) DSC
[2] = Crystal; for mass density: 298 K, 101.33 kPa, Pycnometric method; for Triple point temperature: DTA
[3] = Molar enthalpy of transition or fusion; settings: Crystal; DSC

| SMILES | molar heat capacity at constant pressure [1] | mass density [2] | Triple point temperature [2] | Molar enthalpy of transition or fusion [3] |
| --- | --- | --- | --- | --- |
| CC(C)c1ccc2occ(C=O)c(=O)c2c1 [3-formyl-6-isopropylchromone] | 222.5 ± 4.5 J/K/mol | 1170 ± 10 kg/m3 | 371.47 ± 0.39 K | 5.76 ± 0.198 kcal/mol |
| Cc1ccc2occ(C=O)c(=O)c2c1 [3-formyl-6-methylchromone] | 178.96 ± 3.6 J/K/mol | 1470 ± 10 kg/m3 | 444.45 ± 0.39 K | 6.41 ± 0.189 kcal/mol |
| O=Cc1coc2ccccc2c1=O [3-formylchromone] | 121.04 ± 2.4 J/K/mol | 1700 ± 10 kg/m3 | 424.89 ± 0.39 K | 6.06 ± 0.136 kcal/mol |
